PubChem BioAssay AID2060891 (Molecular Pharmacology Branch, DTP, NCI, 2025)
Several values for one entry are separate records, joined by “and”; a condition that tells them apart may be missing. Equal values may be shown once.

Test system: K98450-129-R-PDC complex spheroid growth, percent test/control
Assay: Anticancer human tumor K98450-129-R-PDC patient-derived colon adenocarcinoma cell line growth inhibition [RAS]
Settings: for viability, T/C: stronger effect = lower value; active = viability on the fitted dose curve at most 10% of control; inactive = the rest
Procedure, shortened: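 Tumour cells grown as complex spheroids with HUVEC endothelial cells and mesenchymal stem cells, treated with RAS pathway inhibitor combinations. Each agent spans half-log steps from near clinical Cmax, or 10 microM where Cmax is unknown.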
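Note: spheroids exposed to agents for seven days before the viability readout.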
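Throughout, for viability, T/C: luminescence used as a proxy for viable cell amount.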

C=CC(=O)N1CCN(c2nc(OCC3CCCN3C)nc3c(F)c(-c4nc(N)cc(C)c4C(F)(F)F)c(Cl)cc23)C(C)C1 (stereo unspecified) + C#Cc1c(F)ccc2cc(O)cc(-c3ncc4c(N5CC6CCC(C5)N6)nc(OCC56CCCN5CC(F)C6)nc4c3F)c12
111 nM: IC50 (curve of first compound, second compound 3.16 µM)
134 nM: IC50 (curve of first compound, second compound 10 µM)
93.2 nM: IC50 (curve of first compound, second compound 1 µM)
164 nM: IC50 (curve of first compound, second compound 0.0316 µM)
inactive: viability, T/C (second compound 0.0316 µM, first compound 0.00316 µM) 94.9% | viability, T/C (second compound 0.0316 µM, first compound 0.01 µM) 81.4% | viability, T/C (second compound 0.0316 µM, first compound 0.0316 µM) 68.7% | viability, T/C (second compound 0.0316 µM, first compound 0.1 µM) 55% | viability, T/C (second compound 0.0316 µM, first compound 0.316 µM) 43.6% | viability, T/C (second compound 0.0316 µM, first compound 1 µM) 30.8% | viability, T/C (second compound 0.1 µM, first compound 0.00316 µM) 95.4% | viability, T/C (second compound 0.1 µM, first compound 0.01 µM) 81.3% | viability, T/C (second compound 0.1 µM, first compound 0.0316 µM) 68.7% | viability, T/C (second compound 0.1 µM, first compound 0.1 µM) 54.3% | viability, T/C (second compound 0.1 µM, first compound 0.316 µM) 40.5% | viability, T/C (second compound 0.1 µM, first compound 1 µM) 31.4% | viability, T/C (second compound 0.316 µM, first compound 0.00316 µM) 97.7% | viability, T/C (second compound 0.316 µM, first compound 0.01 µM) 86.4% | viability, T/C (second compound 0.316 µM, first compound 0.0316 µM) 70.9% | viability, T/C (second compound 0.316 µM, first compound 0.1 µM) 58.8% | viability, T/C (second compound 0.316 µM, first compound 0.316 µM) 33.9% | viability, T/C (second compound 0.316 µM, first compound 1 µM) 32.6% | viability, T/C (second compound 1 µM, first compound 0.00316 µM) 93.4% | viability, T/C (second compound 1 µM, first compound 0.01 µM) 88.7% | viability, T/C (second compound 1 µM, first compound 0.0316 µM) 67% | viability, T/C (second compound 1 µM, first compound 0.1 µM) 50.2% | viability, T/C (second compound 1 µM, first compound 0.316 µM) 37.2% | viability, T/C (second compound 1 µM, first compound 1 µM) 33.7% | viability, T/C (second compound 3.16 µM, first compound 0.00316 µM) 94.3% | viability, T/C (second compound 3.16 µM, first compound 0.01 µM) 80.4% | viability, T/C (second compound 3.16 µM, first compound 0.0316 µM) 69.7% | viability, T/C (second compound 3.16 µM, first compound 0.1 µM) 52% | viability, T/C (second compound 3.16 µM, first compound 0.316 µM) 34.7% | viability, T/C (second compound 3.16 µM, first compound 1 µM) 26.1% | viability, T/C (second compound 10 µM, first compound 0.00316 µM) 82.9% | viability, T/C (second compound 10 µM, first compound 0.01 µM) 78.4% | viability, T/C (second compound 10 µM, first compound 0.0316 µM) 68.8% | viability, T/C (second compound 10 µM, first compound 0.1 µM) 53.1% | viability, T/C (second compound 10 µM, first compound 0.316 µM) 38.9% | viability, T/C (second compound 10 µM, first compound 1 µM) 24.6%
137 nM: IC50 (curve of first compound, second compound 0.316 µM)
143 nM: IC50 (curve of first compound, second compound 0.1 µM)

CC1(C)CCC(Nc2ncc(C(F)(F)F)c(-c3c[nH]c4c(P(C)(C)=O)c(C#N)ccc34)n2)CN1 (stereo unspecified)
inactive: viability, T/C (compound 0.000949 µM) 105% [middle of 4 runs] | viability, T/C (compound 0.003 µM) 105% (2×) and 98.6% and 96.4% | viability, T/C (compound 0.00949 µM) 106% [middle of 4 runs] | viability, T/C (compound 0.03 µM) 107% (2×) and 109% and 99.9% | viability, T/C (compound 0.0949 µM) 94.4% [middle of 4 runs] | viability, T/C (compound 0.3 µM) 86.1% [middle of 4 runs]
> 300 nM: IC50 (curve of compound)

CC(C)NCC(C(=O)N1CCN(c2ncnc3c2C(C)CC3O)CC1)c1ccc(Cl)cc1 (stereo unspecified) + CCn1c(-c2cc(N3CCN(C)CC3)cnc2C(C)OC)c2c3cc(ccc31)-c1csc(n1)CC(NC(=O)C1CC1C)C(=O)N1CCCC(N1)C(=O)OCC(C)(C)C2
< 31.6 nM: IC50 (curve of first compound, second compound 0.03 µM) | IC50 (curve of first compound, second compound 0.0949 µM) | IC50 (curve of first compound, second compound 0.3 µM)
inactive: viability, T/C (second compound 0.000949 µM, first compound 0.0316 µM) 104% | viability, T/C (second compound 0.000949 µM, first compound 0.1 µM) 93.3% | viability, T/C (second compound 0.000949 µM, first compound 0.316 µM) 89.9% | viability, T/C (second compound 0.000949 µM, first compound 1 µM) 73.3% | viability, T/C (second compound 0.000949 µM, first compound 3.16 µM) 100% | viability, T/C (second compound 0.000949 µM, first compound 10 µM) 89.9% | viability, T/C (second compound 0.003 µM, first compound 0.0316 µM) 90.7% | viability, T/C (second compound 0.003 µM, first compound 0.1 µM) 80.8% | viability, T/C (second compound 0.003 µM, first compound 0.316 µM) 87.1% | viability, T/C (second compound 0.003 µM, first compound 1 µM) 76.5% | viability, T/C (second compound 0.003 µM, first compound 3.16 µM) 75.3% | viability, T/C (second compound 0.003 µM, first compound 10 µM) 79.7% | viability, T/C (second compound 0.00949 µM, first compound 0.0316 µM) 66.7% | viability, T/C (second compound 0.00949 µM, first compound 0.1 µM) 67% | viability, T/C (second compound 0.00949 µM, first compound 0.316 µM) 70% | viability, T/C (second compound 0.00949 µM, first compound 1 µM) 74.5% | viability, T/C (second compound 0.00949 µM, first compound 3.16 µM) 77.4% | viability, T/C (second compound 0.00949 µM, first compound 10 µM) 67.5% | viability, T/C (second compound 0.03 µM, first compound 0.0316 µM) 48.7% | viability, T/C (second compound 0.03 µM, first compound 0.1 µM) 44.8% | viability, T/C (second compound 0.03 µM, first compound 0.316 µM) 52.7% | viability, T/C (second compound 0.03 µM, first compound 1 µM) 47.7% | viability, T/C (second compound 0.03 µM, first compound 3.16 µM) 54.7% | viability, T/C (second compound 0.03 µM, first compound 10 µM) 46.9% | viability, T/C (second compound 0.0949 µM, first compound 0.0316 µM) 19% | viability, T/C (second compound 0.0949 µM, first compound 0.1 µM) 24.3% | viability, T/C (second compound 0.0949 µM, first compound 0.316 µM) 17.6% | viability, T/C (second compound 0.0949 µM, first compound 1 µM) 17.8% | viability, T/C (second compound 0.0949 µM, first compound 3.16 µM) 16.2% | viability, T/C (second compound 0.0949 µM, first compound 10 µM) 11.2% | viability, T/C (second compound 0.3 µM, first compound 0.0316 µM) 11.1% | viability, T/C (second compound 0.3 µM, first compound 0.1 µM) 12.6% | viability, T/C (second compound 0.3 µM, first compound 0.316 µM) 12.5% | viability, T/C (second compound 0.3 µM, first compound 1 µM) 10.1% | viability, T/C (second compound 0.3 µM, first compound 3.16 µM) 9.61% | viability, T/C (second compound 0.3 µM, first compound 10 µM) 7.13%
> 10000 nM: IC50 (curve of first compound, second compound 0.000949 µM) | IC50 (curve of first compound, second compound 0.003 µM) | IC50 (curve of first compound, second compound 0.00949 µM)
